Assays:
[1] = tested on: L3-1Y/IgG2 resistant EBC1 cells; test: Cell viability in L3-1Y/IgG2 resistant EBC1 cells; format: cell-based; conditions: 72 hours, BGJ398 5 uM
Description: To verify that the co-treatment with a FGFR inhibitor allows overcoming a L3-1Y/IgG2 resistance acquired by repeated treatment of L3-1Y/IgG2, L3-1Y/IgG2 resistant cells were prepared by treating L3-1Y/IgG2 to EBC1 lung cancer cell line for at least 3 months, and used for the following experiment. The EBC1 lung cancer cell line acquiring the resistant to L3-1Y/IgG2 was prepared referring to Example 4.
The synergistic effect of co-treatment of a FGFR inhibitor and L3-1Y/IgG2 was verified as follows. The prepared L3-1Y/IgG2 resistant EBC1 cells were seeded at the amount of 5,000 cells/well on a 96 well plate to which RPMI1640 medium (GIBCO) supplemented with 10% FBS is added, and incubated overnight at 37° C. Next day (24 hours after), the incubated cells were treated with L3-1Y/IgG2 alone or together with FGFR inhibitor, BGJ398. […]
(§1) At 72 hours after the single treatment or the co-treatment, 100 uL of CellTiter Glo solution (Promega, G7572) was added to each well, and left for 30 minutes at room temperature. The cell number was counted by emission signal, and the emission signal was recorded using Envision 2104 Multi-label Reader (Perkin Elmer).

[2] = tested on: MKN45 gastric cancer cells; test: Tumor xenograft model of MKN45 gastric cancer cell line; format: in vivo, BALB/c nude mice; conditions: 21st day after treatment vs vehicle, BGJ398 10 mg/kg P.O. once a day, L3-1Y/IgG2 1 mg/kg I.V. once a week
Description: To verify the in vivo effect of the co-administration on tumor growth, a tumor xenograft model was prepared using male 5-6 week-old BALB/c nude mice (Pharmalegacy, China). The mice were adapted at least one week before inoculation of tumor cells.
Then, the mice were anesthetized with 1-2% isofurane, and MKN45 gastric cancer cells (JCRB, JCRB0254) were subcutaneously injected into right flank of the mice at the amount of 5×10^6 cells/each mouse. 7 days after, when the average size of tumor reaches 50 mm^3 or more, the mice were grouped into the following groups: a group treated with BGJ398 (10 mg/kg P.O., once a day), a group treated with L3-1Y/IgG2 (1 mg/kg I.V., once a week), a group co-treated with L3-1Y/IgG2 (1 mg/kg, I.V., once a week) and BGJ398 (10 mg/kg, P.O., once a day), and a group (control) treated with vehicle (PBS 0.2 ml, I.V., once a week). Each group consisted of 10 mice.
The experiment was performed for 4 weeks in total, and tumor size and body weight of the mice were measured twice a week. The tumor volume (V) was calculated by the following formula: V(mm^3)={length of long axis(mm)×(length of short axis(mm))^2}/2.

[3] = tested on: L3-1Y/IgG2 resistant MKN45 cells; test: Cell viability in L3-1Y/IgG2 resistant MKN45 cells; format: cell-based; conditions: 72 hours, PD173074 10 uM, BGJ398 5 uM
Description: To verify that the co-treatment with a FGFR inhibitor allows overcoming a L3-1Y/IgG2 resistance acquired by repeated treatment of L3-1Y/IgG2, L3-1Y/IgG2 resistant cells were prepared by treating L3-1Y/IgG2 to MKN45 gastric cancer cell line for at least 3 months, and used for the following experiment. The L3-1Y/IgG2 resistant cells were prepared as follows: MKN45 cells (JCRB, JCRB0254) were treated with L3-1Y/IgG2, where the concentration of treated L3-1Y/IgG2 was increased from 1 ug/ml to 10 ug/ml, until the resistance is acquired. To verify the acquirement of resistance to L3-1Y/IgG2, the resistance acquired clones were cultured with or without L3-1Y/IgG2 treatment, and at 72 hours after the treatment, the cell number was measured by CellTiter Glo assay (Promega, G7573), referring to the above example,
The synergistic effect of co-treatment of a FGFR inhibitor and L3-1Y/IgG2 was verified as follows. The prepared L3-1Y/IgG2 resistant MKN45 cells were seeded at the amount of 5,000 cells/well on 96 well plate to which RPMI1640 medium (GIBCO) supplemented with 10% FBS is added, and incubated overnight at 37° C. Next day (24 hours after), the incubated cells were treated with L3-1Y/IgG2 alone or together with FGFR inhibitor, PD173074 or BGJ398. For the treatment of L3-1Y/IgG2 only, the concentration of L3-1Y/IgG2 was 0 ug/ml, 0.016 ug/ml, 0.08 ug/ml, 0.4 ug/ml, or 2 ug/ml, and for the co-treatment, the concentration of the FGFR inhibitor was fixed and the concentration of L3-1Y/IgG2 was 0 ug/ml, 0.016 ug/ml, 0.08 ug/ml, 0.4 ug/ml, or 2 ug/ml. The concentration of the FGFR inhibitor was fixed at 10 uM for PD173074 and 5 uM for BGJ398.
as §1

[4] = tested on: MKN45 gastric cancer cells; test: Cell viability (CellTiter Glo) in MKN45 gastric cancer cell line; format: cell-based; conditions: for cell growth inhibition: MKN45, 72 hours, L3-1Y/IgG2 0-2 ug/ml, PD173074 fixed at 10 uM
Description: In particular, RPMI1640 medium (GIBCO) containing 10% FBS was put in a 96 well plate. MKN45 gastric cancer cells (JCRB, JCRB0254) were seeded thereon in the amount of 5,000 cells/well, and incubated overnight at 37° C. After 24 hours (the next day), the incubated cells were treated with L3-1Y/IgG2 (Reference Example 1) alone, or co-treated with L3-1Y/IgG2 and a FGFR inhibitor, PD173074. For the single treatment of L3-1Y/IgG2 alone, the concentration of L3-1Y/IgG2 was 0 ug (microgram)/ml, 0.016 ug/ml, 0.08 ug/ml, 0.4 ug/ml, or 2 ug/ml, and for the co-treatment of L3-1Y/IgG2 and PD173074, the concentration of PD173074 was fixed at 10 uM (micromole) which is a concentration of IC20 in MKN45 cell line, and the concentration of L3-1Y/IgG2 was 0 ug/ml, 0.016 ug/ml, 0.08 ug/ml, 0.4 ug/ml, or 2 ug/ml.
as §1, with “uL (microliter)” for “uL”

[5] = tested on: EBC1 lung cancer cells; test: Cell viability (CellTiter Glo) in EBC1 lung cancer cell line; format: cell-based; conditions: 72 hours, L3-1Y/IgG2 0-2 ug/ml, PD173074 10 uM or BGJ398 5 uM
Description: (§2) In particular, RPMI1640 medium (GIBCO) containing 10% FBS were put in 96 well plate. EBC1 lung cancer cells (JCRB, JCRB0820) were seeded thereon in the amount of 5,000 cells/well, and incubated overnight at 37° C. After 24 hours (the next day), the incubated cells were treated with L3-1Y/IgG2 (Reference Example 1) alone, or co-treated with L3-1Y/IgG2 and a FGFR inhibitor, PD173074 or BGJ398. For the single treatment of L3-1Y/IgG2 alone, the concentration of L3-1Y/IgG2 was 0 ug/ml, 0.016 ug/ml, 0.08 ug/ml, 0.4 ug/ml, or 2 ug/ml, and for the co-treatment of L3-1Y/IgG2 and PD173074 or BGJ398, the concentration of PD173074 was fixed at 10 uM for PD173074 and 5 uM for BGJ398, and the concentration of L3-1Y/IgG2 was 0 ug/ml, 0.016 ug/ml, 0.08 ug/ml, 0.4 ug/ml, or 2 ug/ml.
as §1

[6] = tested on: HT29 colon cancer cells; test: Cell viability (CellTiter Glo) in HT29 colon cancer cell line; format: cell-based; conditions: 72 hours, L3-1Y/IgG2 0-2 ug/ml, PD173074 fixed at 5 uM
Description: as §2, with “HT29 colon” for “EBC1 lung”, “(ATCC, HTB-38)” for “(JCRB, JCRB0820)”, “PD173074.” for “PD173074 or BGJ398.”, “PD173074,” for “PD173074 or BGJ398,”, “at” for “at 10 uM for PD173074 and”, “uM,” for “uM for BGJ398,”
as §1

CCN1CCN(c2ccc(Nc3cc(N(C)C(=O)Nc4c(Cl)c(OC)cc(OC)c4Cl)ncn3)cc2)CC1 [BGJ398, 3-(2,6-dichloro-3,5-dimethoxyphenyl)-1-(6-(4-(4-ethylpiperazin-1-yl)phenylamino)pyrimidin-4-yl)-1-methylurea, reference compound]
cancer cell growth inhibitory effect [1]: not obtained
tumor inhibition rate, At d21:TV [2]: 1.3%
cancer cell growth inhibitory effect [3]: not obtained

CCN(CC)CCCCNc1ncc2cc(-c3cc(OC)cc(OC)c3)c(NC(=O)NC(C)(C)C)nc2n1 [PD173074, N-[2-[[4-(Diethylamino)butyl]amino]-6-(3,5-dimethoxyphenyl)pyrido[2,3-d]pyrimidin-7-yl]-N′-(1,1-dimethylethyl)urea]
IC20 ([4]; Homo sapiens, MKN-45, read-out: concentration of IC20 in MKN45 cell line): 10 µM
cell growth inhibition [4]: no significant effect on cell growth
cancer cell growth inhibitory effect [3]: not obtained

B1: L3-1Y/IgG2: anti-c-Met antibody: huAbF46-H4-A1 heavy chain variable region, human IgG2 hinge and constant region, kappa light chain (antibody)
heavy: EVQLVESGGGLVQPGGSLRLSCAASGFTFTDYYMSWVRQAPGKGLEWLGFIRNKANGYTTEYSASVKGRFTISRDNSKNTLYLQMNSLRAEDTAVYYCARDNWFAYWGQGTLVTVSSASTKGPSVFPLAPCSRSTSESTAALGCLVKDYFPEPVTVSWNSGALTSGVHTFPAVLQSSGLYSLSSVVTVPSSNFGTQTYTCNVDHKPSNTKVDKTVERKCCVECPPCPAPPVAGPSVFLFPPKPKDTLMISRTPEVTCVVVDVSHEDPEVQFNWYVDGVEVHNAKTKPREEQFNSTFRVVSVLTVVHQDWLNGKEYKCKVSNKGLPAPIEKTISKTKGQPREPQVYTLPPSREEMTKNQVSLTCLVKGFYPSDIAVEWESNGQPENNYKTTPPMLDSDGSFFLYSKLTVDKSRWQQGNVFSCSVMHEALHNHYTQKSLSLSPGK
light: DIQMTQSPSSLSASVGDRVTITCKSSQSLLASGNQNNYLAWYQQKPGKAPKMLIIWASTRVSGVPSRFSGSGSGTDFTLTISSLQPEDFATYYCQQSYSRPYTFGQGTKVEIKRTVAAPSVFIFPPSDEQLKSGTASVVCLLNNFYPREAKVQWKVDNALQSGNSQESVTEQDSKDSTYSLSSTLTLSKADYEKHKVYACEVTHQGLSSPVTKSFNRGEC
cell growth inhibition [5]: cell growth inhibiting effect is observed
cell growth inhibition [4]: cell growth inhibition is observed
cancer cell growth inhibitory effect [1]: not obtained
tumor inhibition rate, At d21:TV [2]: 27.8%
cancer cell growth inhibitory effect [3]: not obtained
cell growth inhibiting effect [6]: not observed
